Measured values published in patent EP4745137A1 (Gluetacs Therapeutics (Shanghai) Co., Ltd., priority 2023, dated 2025).

Key:
Assay type in all cases: cell-based
Conditions in all cases: 24 hours of compound treatment, 50 nM and 500 nM tested (concentration behind the class not stated)
CK1α = target: T1, CK1α (Homo sapiens, UniProt P48729+Q96SW2); experiment: Western-blot assay of substrate protein degradation in hPBMCs, CK1α
T1 construct: endogenous in cells; host or cells: hPBMCs (Milecell Biotechnologies)
T1 sequence (P48729 whole entry): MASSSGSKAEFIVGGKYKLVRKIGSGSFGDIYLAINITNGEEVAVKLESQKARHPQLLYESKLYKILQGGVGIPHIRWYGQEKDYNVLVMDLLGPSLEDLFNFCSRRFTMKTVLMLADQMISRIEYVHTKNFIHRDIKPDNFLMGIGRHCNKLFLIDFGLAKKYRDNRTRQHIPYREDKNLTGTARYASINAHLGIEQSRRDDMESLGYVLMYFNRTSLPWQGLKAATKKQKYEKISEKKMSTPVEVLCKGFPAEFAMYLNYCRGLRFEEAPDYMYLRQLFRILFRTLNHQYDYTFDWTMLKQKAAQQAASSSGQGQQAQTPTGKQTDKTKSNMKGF
T1 sequence (Q96SW2 whole entry): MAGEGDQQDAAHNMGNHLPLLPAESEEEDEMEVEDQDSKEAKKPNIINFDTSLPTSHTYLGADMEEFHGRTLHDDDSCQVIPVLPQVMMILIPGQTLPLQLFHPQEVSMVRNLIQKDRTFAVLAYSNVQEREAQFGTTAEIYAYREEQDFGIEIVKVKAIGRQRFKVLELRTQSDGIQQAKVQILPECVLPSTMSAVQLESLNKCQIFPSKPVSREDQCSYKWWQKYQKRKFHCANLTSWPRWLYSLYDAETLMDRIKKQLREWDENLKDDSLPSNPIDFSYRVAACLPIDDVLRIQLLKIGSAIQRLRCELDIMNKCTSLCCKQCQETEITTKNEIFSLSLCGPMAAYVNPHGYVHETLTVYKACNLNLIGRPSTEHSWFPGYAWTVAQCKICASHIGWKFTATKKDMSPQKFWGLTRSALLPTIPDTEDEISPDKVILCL
T1 sequence (Q16531 whole entry partner): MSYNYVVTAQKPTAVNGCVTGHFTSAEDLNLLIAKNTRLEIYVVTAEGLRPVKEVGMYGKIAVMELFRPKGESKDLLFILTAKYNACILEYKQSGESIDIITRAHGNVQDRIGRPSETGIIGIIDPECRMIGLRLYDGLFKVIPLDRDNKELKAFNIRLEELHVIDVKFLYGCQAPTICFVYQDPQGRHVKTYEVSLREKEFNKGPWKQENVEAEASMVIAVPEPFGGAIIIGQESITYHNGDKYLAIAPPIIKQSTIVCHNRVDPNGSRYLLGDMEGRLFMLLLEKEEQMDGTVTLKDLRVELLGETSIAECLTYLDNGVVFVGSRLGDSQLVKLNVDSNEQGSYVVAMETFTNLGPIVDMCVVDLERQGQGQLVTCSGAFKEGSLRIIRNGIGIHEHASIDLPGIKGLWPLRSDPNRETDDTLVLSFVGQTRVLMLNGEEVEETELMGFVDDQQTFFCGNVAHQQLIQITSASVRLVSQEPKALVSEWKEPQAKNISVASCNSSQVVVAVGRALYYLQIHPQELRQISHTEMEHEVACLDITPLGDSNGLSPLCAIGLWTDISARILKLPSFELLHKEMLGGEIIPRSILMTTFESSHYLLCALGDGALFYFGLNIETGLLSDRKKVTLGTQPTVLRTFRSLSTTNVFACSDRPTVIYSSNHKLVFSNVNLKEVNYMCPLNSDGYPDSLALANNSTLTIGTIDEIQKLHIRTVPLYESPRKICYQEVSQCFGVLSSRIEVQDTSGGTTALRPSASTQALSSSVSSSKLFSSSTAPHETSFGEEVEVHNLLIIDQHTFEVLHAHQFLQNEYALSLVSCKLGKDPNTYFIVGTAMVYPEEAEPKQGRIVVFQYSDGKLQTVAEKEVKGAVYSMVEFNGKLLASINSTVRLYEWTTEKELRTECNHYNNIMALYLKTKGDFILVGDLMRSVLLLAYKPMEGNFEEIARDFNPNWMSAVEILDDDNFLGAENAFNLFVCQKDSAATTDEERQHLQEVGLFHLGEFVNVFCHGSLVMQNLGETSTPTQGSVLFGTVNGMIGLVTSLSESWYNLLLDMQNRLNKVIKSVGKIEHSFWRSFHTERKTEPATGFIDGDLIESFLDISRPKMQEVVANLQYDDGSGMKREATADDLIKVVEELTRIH

IKZF2 = target: T2, IKZF2 (Homo sapiens, UniProt Q96SW2+Q9UKS7); experiment: Western-blot assay of substrate protein degradation in hPBMCs, IKZF2
T2 construct: endogenous in cells; host or cells: hPBMCs (Milecell Biotechnologies)
T2 sequence (Q9UKS7 whole entry): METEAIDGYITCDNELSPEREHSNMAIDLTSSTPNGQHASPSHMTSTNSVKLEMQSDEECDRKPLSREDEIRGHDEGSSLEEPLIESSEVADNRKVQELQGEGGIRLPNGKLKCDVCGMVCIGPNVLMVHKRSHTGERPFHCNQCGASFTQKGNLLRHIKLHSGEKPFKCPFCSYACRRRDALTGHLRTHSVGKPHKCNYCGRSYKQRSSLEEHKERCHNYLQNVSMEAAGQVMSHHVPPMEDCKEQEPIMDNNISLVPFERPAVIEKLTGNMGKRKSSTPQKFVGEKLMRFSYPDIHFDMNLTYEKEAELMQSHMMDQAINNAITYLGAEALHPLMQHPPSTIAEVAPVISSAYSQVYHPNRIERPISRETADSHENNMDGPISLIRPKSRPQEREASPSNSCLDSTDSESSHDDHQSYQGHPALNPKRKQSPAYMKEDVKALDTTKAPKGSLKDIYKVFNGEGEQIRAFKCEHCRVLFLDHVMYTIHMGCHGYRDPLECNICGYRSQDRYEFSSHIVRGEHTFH
T2 sequence (Q96SW2 whole entry): as the sequence (Q96SW2 whole entry) above
T2 sequence (Q16531 whole entry partner): as the sequence (Q16531 whole entry partner) above

GSPT1 = target: T3, GSPT1 (Homo sapiens, UniProt P15170+Q96SW2); experiment: Western-blot assay of substrate protein degradation in hPBMCs, GSPT1
T3 construct: endogenous in cells; host or cells: hPBMCs (Milecell Biotechnologies)
T3 sequence (P15170 whole entry): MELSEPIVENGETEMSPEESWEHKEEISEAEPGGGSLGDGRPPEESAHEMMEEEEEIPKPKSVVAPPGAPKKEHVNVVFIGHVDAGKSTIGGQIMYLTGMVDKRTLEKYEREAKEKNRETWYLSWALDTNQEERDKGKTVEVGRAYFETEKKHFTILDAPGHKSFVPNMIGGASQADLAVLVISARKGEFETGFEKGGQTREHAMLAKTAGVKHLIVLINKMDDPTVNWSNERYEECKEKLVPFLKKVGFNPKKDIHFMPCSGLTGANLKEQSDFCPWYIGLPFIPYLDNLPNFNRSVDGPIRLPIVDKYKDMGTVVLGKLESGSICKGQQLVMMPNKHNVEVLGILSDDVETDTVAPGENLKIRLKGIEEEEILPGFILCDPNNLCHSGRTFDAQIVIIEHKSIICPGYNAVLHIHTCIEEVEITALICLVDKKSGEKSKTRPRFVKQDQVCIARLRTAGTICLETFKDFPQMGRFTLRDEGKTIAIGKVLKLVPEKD
T3 sequence (Q96SW2 whole entry): as the sequence (Q96SW2 whole entry) above
T3 sequence (Q16531 whole entry partner): as the sequence (Q16531 whole entry partner) above

IKZF1 = target: T4, IKZF1 (Homo sapiens, UniProt Q13422+Q96SW2); experiment: Western-blot assay of substrate protein degradation in hPBMCs, IKZF1
T4 construct: endogenous in cells; host or cells: hPBMCs (Milecell Biotechnologies)

WEE1 = target: T5, WEE1 (Homo sapiens, UniProt P30291+Q96SW2); experiment: Western-blot assay of substrate protein degradation in hPBMCs, WEE1
T5 construct: endogenous in cells; host or cells: hPBMCs (Milecell Biotechnologies)
T5 sequence (P30291 whole entry): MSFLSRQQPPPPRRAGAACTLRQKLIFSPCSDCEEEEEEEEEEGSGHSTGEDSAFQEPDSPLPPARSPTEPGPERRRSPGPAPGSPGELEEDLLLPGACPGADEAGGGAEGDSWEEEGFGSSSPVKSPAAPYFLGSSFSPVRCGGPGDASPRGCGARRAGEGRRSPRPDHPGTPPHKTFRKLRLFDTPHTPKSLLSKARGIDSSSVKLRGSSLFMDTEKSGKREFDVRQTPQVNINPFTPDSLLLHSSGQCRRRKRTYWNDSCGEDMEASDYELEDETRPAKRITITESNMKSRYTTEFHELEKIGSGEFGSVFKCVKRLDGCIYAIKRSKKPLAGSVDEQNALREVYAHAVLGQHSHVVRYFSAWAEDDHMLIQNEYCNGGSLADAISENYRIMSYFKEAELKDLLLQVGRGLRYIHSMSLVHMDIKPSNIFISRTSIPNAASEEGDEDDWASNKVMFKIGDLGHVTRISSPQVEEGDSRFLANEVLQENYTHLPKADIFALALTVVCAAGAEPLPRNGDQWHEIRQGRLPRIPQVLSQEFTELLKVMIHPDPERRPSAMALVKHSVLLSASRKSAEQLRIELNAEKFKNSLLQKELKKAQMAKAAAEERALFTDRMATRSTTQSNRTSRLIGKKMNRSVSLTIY
T5 sequence (Q96SW2 whole entry): as the sequence (Q96SW2 whole entry) above
T5 sequence (Q16531 whole entry partner): as the sequence (Q16531 whole entry partner) above

IKZF3 = target: T6, IKZF3 (Homo sapiens, UniProt Q96SW2+Q9UKT9); experiment: Western-blot assay of substrate protein degradation in hPBMCs, IKZF3
T6 construct: endogenous in cells; host or cells: hPBMCs (Milecell Biotechnologies)
T6 sequence (Q9UKT9 whole entry): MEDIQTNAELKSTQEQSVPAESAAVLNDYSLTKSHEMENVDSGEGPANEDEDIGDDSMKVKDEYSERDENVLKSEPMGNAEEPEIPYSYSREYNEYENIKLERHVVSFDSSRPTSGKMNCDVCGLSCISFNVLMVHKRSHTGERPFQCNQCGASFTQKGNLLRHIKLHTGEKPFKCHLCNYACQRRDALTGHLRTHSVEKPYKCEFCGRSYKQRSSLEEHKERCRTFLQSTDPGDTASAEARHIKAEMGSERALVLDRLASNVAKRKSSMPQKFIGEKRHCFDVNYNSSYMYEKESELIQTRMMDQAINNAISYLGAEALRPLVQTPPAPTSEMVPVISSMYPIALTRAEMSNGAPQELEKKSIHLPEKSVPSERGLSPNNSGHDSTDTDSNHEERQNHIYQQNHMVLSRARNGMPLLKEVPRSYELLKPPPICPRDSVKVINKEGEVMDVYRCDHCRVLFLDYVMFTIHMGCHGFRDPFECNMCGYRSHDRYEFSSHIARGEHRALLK
T6 sequence (Q96SW2 whole entry): as the sequence (Q96SW2 whole entry) above
T6 sequence (Q16531 whole entry partner): as the sequence (Q16531 whole entry partner) above

SMILES | CK1a substrate protein remaining % (CK1α) | IKZF2 substrate protein remaining % (IKZF2) | GSPT1 substrate protein remaining % (GSPT1) | IKZF 1 substrate protein remaining % (IKZF1) | Weel substrate protein remaining % (WEE1) | IKZF3 substrate protein remaining % (IKZF3)
O=C1CCC(N2C(=O)c3ccc(CN4CCN(c5ncnc6sccc56)CC4)cc3C2=O)C(=O)N1 (stereo not drawn) [GT-06303, 2-(2,6-dioxopiperidin-3-yl)-5-((4-(thieno[2,3-d]pyrimidin-4-yl)piperazin-1-yl)methyl)isoindoline-1,3-dione] | B (80%< substrate protein remaining %≤ 100%) | B (80%< substrate protein remaining %≤ 100%) | B (80%< substrate protein remaining %≤ 100%) | A (0% ≤ substrate protein remaining % ≤ 80%) | B (80%< substrate protein remaining %≤ 100%) | B (80%< substrate protein remaining %≤ 100%)
Cc1cc2c(N3CCN(Cc4ccc5c(c4)C(=O)N(C4CCC(=O)NC4=O)C5=O)CC3)ncnc2s1 (stereo not drawn) [GT-06305, 2-(2,6-dioxopiperidin-3-yl)-5-((4-(6-methylthieno[2,3-d]pyrimidin-4-yl)piperazin-1-yl)methyl)isoindoline-1,3-dione] | A (0% ≤ substrate protein remaining % ≤ 80%) | B (80%< substrate protein remaining %≤ 100%) | B (80%< substrate protein remaining %≤ 100%) | B (80%< substrate protein remaining %≤ 100%) | B (80%< substrate protein remaining %≤ 100%) | B (80%< substrate protein remaining %≤ 100%)
Cc1sc2ncnc(N3CCN(Cc4ccc5c(c4)C(=O)N(C4CCC(=O)NC4=O)C5=O)CC3)c2c1C (stereo not drawn) [GT-06307, 5-((4-(5,6-dimethylthieno[2,3-d]pyrimidin-4-yl)piperazin-1-yl)methyl)-2-(2,6-dioxopiperidin-3-yl)isoindoline-1,3-dione] | A (0% ≤ substrate protein remaining % ≤ 80%) | A (0% ≤ substrate protein remaining % ≤ 80%) | A (0% ≤ substrate protein remaining % ≤ 80%) | A (0% ≤ substrate protein remaining % ≤ 80%) | B (80%< substrate protein remaining %≤ 100%) | B (80%< substrate protein remaining %≤ 100%)
Cc1sc2ncnc(N3CCCN(Cc4ccc5c(c4)C(=O)N(C4CCC(=O)NC4=O)C5=O)CC3)c2c1C (stereo not drawn) [GT-06308, 5-((4-(5,6-dimethylthieno[2,3-d]pyrimidin-4-yl)-1,4-diazepan-1-yl)methyl)-2-(2,6-dioxopiperidin-3-yl)isoindoline-1,3-dione] | B (80%< substrate protein remaining %≤ 100%) | A (0% ≤ substrate protein remaining % ≤ 80%) | B (80%< substrate protein remaining %≤ 100%) | A (0% ≤ substrate protein remaining % ≤ 80%) | B (80%< substrate protein remaining %≤ 100%) | B (80%< substrate protein remaining %≤ 100%)
O=C1CCC(N2C(=O)c3ccc(CN4CCN(c5ncnc6sc(-c7ccccc7)cc56)CC4)cc3C2=O)C(=O)N1 (stereo not drawn) [GT-06310, 2-(2,6-dioxopiperidin-3-yl)-5-((4-(6-phenylthieno[2,3-d]pyrimidin-4-yl)piperazin-1-yl)methyl)isoindoline-1,3-dione] | A (0% ≤ substrate protein remaining % ≤ 80%) | A (0% ≤ substrate protein remaining % ≤ 80%) | A (0% ≤ substrate protein remaining % ≤ 80%) | B (80%< substrate protein remaining %≤ 100%) | B (80%< substrate protein remaining %≤ 100%) | A (0% ≤ substrate protein remaining % ≤ 80%)
Cc1nc(N2CCN(Cc3ccc4c(c3)C(=O)N(C3CCC(=O)NC3=O)C4=O)CC2)c2ccsc2n1 (stereo not drawn) [GT-06347, 2-(2,6-dioxopiperidin-3-yl)-5-((4-(2-methylthieno[2,3-d]pyrimidin-4-yl)piperazin-1-yl)methyl)isoindoline-1,3-dione] | B (80%< substrate protein remaining %≤ 100%) | A (0% ≤ substrate protein remaining % ≤ 80%) | B (80%< substrate protein remaining %≤ 100%) | A (0% ≤ substrate protein remaining % ≤ 80%) | B (80%< substrate protein remaining %≤ 100%) | A (0% ≤ substrate protein remaining % ≤ 80%)
O=C1CCC(N2C(=O)c3ccc(CN4CCN(c5ccc(Cl)cc5Cl)CC4)cc3C2=O)C(=O)N1 (stereo not drawn) [GT-06355, 5-((4-(2,4-dichlorophenyl)piperazin-1-yl)methyl)-2-(2,6-dioxopiperidin-3-yl)isoindoline-1,3-dione] | B (80%< substrate protein remaining %≤ 100%) | B (80%< substrate protein remaining %≤ 100%) | A (0% ≤ substrate protein remaining % ≤ 80%) | B (80%< substrate protein remaining %≤ 100%) | B (80%< substrate protein remaining %≤ 100%) | B (80%< substrate protein remaining %≤ 100%)
O=C1CCC(N2C(=O)c3ccc(CN4CCN(c5cc(Cl)ccc5Cl)CC4)cc3C2=O)C(=O)N1 (stereo not drawn) [GT-06356, 5-((4-(2,5-dichlorophenyl)piperazin-1-yl)methyl)-2-(2,6-dioxopiperidin-3-yl)isoindoline-1,3-dione] | B (80%< substrate protein remaining %≤ 100%) | B (80%< substrate protein remaining %≤ 100%) | A (0% ≤ substrate protein remaining % ≤ 80%) | B (80%< substrate protein remaining %≤ 100%) | B (80%< substrate protein remaining %≤ 100%) | B (80%< substrate protein remaining %≤ 100%)
O=C1CCC(N2C(=O)c3ccc(CN4CCC(c5cccc(Cl)c5Cl)CC4)cc3C2=O)C(=O)N1 (stereo not drawn) [GT-06358, 5-((4-(2,3-dichlorophenyl)piperidin-1-yl)methyl)-2-(2,6-dioxopiperidin-3-yl)isoindoline-1,3-dione] | B (80%< substrate protein remaining %≤ 100%) | A (0% ≤ substrate protein remaining % ≤ 80%) | A (0% ≤ substrate protein remaining % ≤ 80%) | A (0% ≤ substrate protein remaining % ≤ 80%) | A (0% ≤ substrate protein remaining % ≤ 80%) | B (80%< substrate protein remaining %≤ 100%)
O=C1CCC(N2C(=O)c3ccc(CN4CCC(c5cccc(F)c5F)CC4)cc3C2=O)C(=O)N1 (stereo not drawn) [GT-06359, 5-((4-(2,3-difluorophenyl)piperidin-1-yl)methyl)-2-(2,6-dioxopiperidin-3-yl)isoindoline-1,3-dione] | B (80%< substrate protein remaining %≤ 100%) | A (0% ≤ substrate protein remaining % ≤ 80%) | A (0% ≤ substrate protein remaining % ≤ 80%) | A (0% ≤ substrate protein remaining % ≤ 80%) | A (0% ≤ substrate protein remaining % ≤ 80%) | B (80%< substrate protein remaining %≤ 100%)
O=C1CCC(N2C(=O)c3ccc(CN4CCC(c5cccc(F)c5Cl)CC4)cc3C2=O)C(=O)N1 (stereo not drawn) [GT-06360, 5-((4-(2-chloro-3-fluorophenyl)piperidin-1-yl)methyl)-2-(2,6-dioxopiperidin-3-yl)isoindoline-1,3-dione] | B (80%< substrate protein remaining %≤ 100%) | A (0% ≤ substrate protein remaining % ≤ 80%) | A (0% ≤ substrate protein remaining % ≤ 80%) | A (0% ≤ substrate protein remaining % ≤ 80%) | A (0% ≤ substrate protein remaining % ≤ 80%) | B (80%< substrate protein remaining %≤ 100%)
O=C1CCC(N2C(=O)c3ccc(CN4CCN(c5ccc(F)cc5F)CC4)cc3C2=O)C(=O)N1 (stereo not drawn) [GT-06361, 5-((4-(2,4-difluorophenyl)piperazin-1-yl)methyl)-2-(2,6-dioxopiperidin-3-yl)isoindoline-1,3-dione] | B (80%< substrate protein remaining %≤ 100%) | B (80%< substrate protein remaining %≤ 100%) | A (0% ≤ substrate protein remaining % ≤ 80%) | B (80%< substrate protein remaining %≤ 100%) | B (80%< substrate protein remaining %≤ 100%) | B (80%< substrate protein remaining %≤ 100%)
